Experimental data taken from US20060264371A1, “Treatment” (Proximagen Ltd., priority 2005, published 2006).
Entries after “also recorded” stand apart in the source; their conditions may differ.

What was measured:
Assay type in all cases: cell-based, rat
[1] = tested on: TH positive cells in primary ventral mesencephalic cultures; test: Survival of TH positive cells in primary ventral mesencephalic cultures without MPP+ treatment; details: 24 hrs incubation, no toxin; listed as OPN
Method: (§1) Primary ventral mesencephalic cell cultures: Primary cell cultures were prepared by dissecting out the ventral mesencephalon from E14 rat foetuses. The dissected tissue was pooled and incubated with 0.1% Trypsin solution. This solution was then removed and replaced with Dulbecco's modified Eagles medium (DMEM) containing 10% foetal bovine serum (FBS) and 0.25% penicillin-streptomycin-neomycin (PSN), and the tissue centrifuged for 1 minute at 2000 rpm at room temperature. The supernatant was then removed, fresh medium was added and the tissue mechanically dissociated using increasing fine bore fire-polished Pasteur pipettes. Cell density was assessed using a haematocytometer and cells were plated in culture medium containing 10% FBS and 0.25% PSN at a density of 1-1.5×10^5 on sterile coverslips coated with 0.01% poly-D-lysine. After 4 days the culture medium was removed and replaced with fresh serum free DMEM prior to treatment with MPP+ or OPN. […]
(§2) Tyrosine hydroxylase (TH) immunohistochemistry: The culture medium was removed from the cells and the coverslips were fixed in 4% paraformaldehyde prior to peroxidase detection of TH using the ABC immunohistochemical method. Coverslips were mounted and examined using a Zeiss Axiophot microscope at a 50× magnification and the number of TH positive cells on each coverslip was manually counted in four fields chosen at random (total area: 8 mm^2).

[2] = tested on: TH positive cells in primary ventral mesencephalic cultures; test: Survival of TH positive cells in primary ventral mesencephalic cultures with MPP+ treatment; details: for concentration of maximal efficacy in increasing TH positive cell survival: lowest concentration used; for effect on survival/death of TH positive cells: 24 hrs pretreatment
Method: Primary ventral mesencephalic cell cultures: Primary cell cultures were prepared by dissecting out the ventral mesencephalon from E14 rat foetuses. The dissected tissue was pooled and incubated with 0.1% Trypsin solution. This solution was then removed and replaced with Dulbecco's modified Eagles medium (DMEM) containing 10% foetal bovine serum (FBS) and 0.25% penicillin-streptomycin-neomycin (PSN), and the tissue centrifuged for 1 minute at 2000 rpm at room temperature. The supernatant was then removed, fresh medium was added and the tissue mechanically dissociated using increasing fine bore fire-polished Pasteur pipettes. Cell density was assessed using a haematocytometer and cells were plated in culture medium containing 10% FBS and 0.25% PSN at a density of 1-1.5×10^5 on sterile coverslips coated with 0.01% poly-D-lysine. After 4 days the culture medium was removed and replaced with fresh serum free DMEM prior to treatment with MPP+ or OPN. Each treatment was done in triplicate per experiment and each series of experiments was repeated a further 2 times to give a final n=3.
Manipulation of the OPN system: Cultures were incubated with one of the following treatments for 24 hrs prior to MPP+ administration (either 10 μM or 2 μM MPP+): OPN protein (1, 5, 10, 25, 50 & 100 ng/ml), anti-OPN antibody (26.5, 53, 265, 530 ng/ml and 1.325, 2.65 μg/ml), anti-αv or anti-β3 integrin receptor subunit antibody (0.02, 0.04, 0.2, 0.4, 1 & 2 μg/ml). Control groups received no MPP+ treatment.
as §2

[3] = tested on: TH positive cells in primary ventral mesencephalic cell cultures; test: MPP+ dose response on TH positive cell number in primary ventral mesencephalic cell cultures; details: 24 hrs exposure, 0.1-10 μM MPP+, n=3; read-out: EC50, TH positive (dopaminergic) cell death
Method: as §1
MPP+ dose response: MPP+ was dissolved in sterile PBS and the primary cell cultures were incubated for 24 hrs with one of the following concentrations of MPP+ : 0.1, 0.5, 1, 2, 5, 10 μM MPP+ or vehicle (PBS). […] An EC50 was calculated (3.076±0.56) and a high (10 μM) or low (2 μM) MPP+ concentration was used to investigate the role of OPN in dopaminergic cell survival. […]

OPN protein fragment: 15 amino acid fragment of rat osteopontin (SEQ ID NO: 8) containing the RGD αvβ3 integrin binding site (TVDVPDGRGDSLAYG; listed as Rattus norvegicus)
effect on viability of TH positive cells [1]: not found to affect the viability; also recorded: no effect | concentration of maximal efficacy in increasing TH positive cell survival ([2]; 2 μM MPP+): 1 ng/mL | concentration of maximal efficacy in increasing TH positive cell survival ([2]; 10 μM MPP+): 1 ng/mL | effect on survival/death of TH positive cells ([2]; then 2 μM MPP+ for 24 hrs): almost completely protected dopaminergic cells | effect on survival/death of TH positive cells ([2]; then 2 μM MPP+ for 24 hrs, listed as OPN): increased TH cell survival | effect on survival/death of TH positive cells ([2]; then 10 μM MPP+ for 24 hrs): almost completely protected dopaminergic cells | effect on survival/death of TH positive cells ([2]; then 10 μM MPP+ for 24 hrs, listed as OPN): increased survival of TH positive cells

C[n+]1ccc(-c2ccccc2)cc1 [MPP+]
EC50 [3]: 3.08 ± 0.56 µM
